Experimental data taken from PubChem BioAssay (NCI).
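Each compound was tested at five concentrations against cells in 96-well plates for 48 hours. GI50 marks 50% less growth. TGI is the concentration that stops growth completely.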

Assays:
Experiment in all cases: NCI tumour cell line growth inhibition, 48 h
HCT-15 colon = tested on: HCT-15 colon
HL-60(TB) leukemia = tested on: HL-60(TB) leukemia
MALME-3M melanoma = tested on: MALME-3M melanoma
SK-MEL-2 melanoma = tested on: SK-MEL-2 melanoma
COLO 205 colon = tested on: COLO 205 colon
SF-539 CNS = tested on: SF-539 CNS
SNB-19 CNS = tested on: SNB-19 CNS
NCI-H522 lung = tested on: NCI-H522 lung
786-0 renal = tested on: 786-0 renal
SN12C renal = tested on: SN12C renal

Structure (SMILES) | GI50 (HCT-15 colon) | TGI (HCT-15 colon) | GI50 (HL-60(TB) leukemia) | TGI (HL-60(TB) leukemia) | GI50 (MALME-3M melanoma) | TGI (MALME-3M melanoma) | GI50 (SK-MEL-2 melanoma) | TGI (SK-MEL-2 melanoma) | GI50 (COLO 205 colon) | TGI (COLO 205 colon) | GI50 (SF-539 CNS) | TGI (SF-539 CNS) | GI50 (SNB-19 CNS) | TGI (SNB-19 CNS) | GI50 (NCI-H522 lung) | TGI (NCI-H522 lung) | GI50 (786-0 renal) | TGI (786-0 renal) | GI50 (SN12C renal) | TGI (SN12C renal)
O=[N+]([O-])c1ccc2nc(N/N=C/c3ccc(O)cc3)sc2c1 | 3.87 µM | > 100 µM | 3.6 µM | 10.6 µM | 19.7 µM | > 100 µM | 4 µM | 25.7 µM | 12.4 µM | 32.1 µM | 3.2 µM | > 100 µM | 6.24 µM | > 100 µM | 1.49 µM | 10.2 µM | 6.43 µM | 60.5 µM | 4.4 µM | > 100 µM
C/C=C(/C)C(=O)OC1C=C(CO)C(=O)C(OC(=O)/C(C)=C\C)C1C(C)C (stereo not given) | 0.46 µM | 1.86 µM | 0.403 µM | 3.86 µM | 0.61 µM | 1.63 µM | 1.82 µM | 3.47 µM | 0.823 µM | 2.75 µM | 1.38 µM | 2.69 µM | 1.46 µM | 2.85 µM | 0.63 µM | 2.23 µM | 1.08 µM | 2.63 µM | 0.546 µM | 1.59 µM
O=C(N/N=C/c1cc2ccccc2c2ccccc12)c1cc(O)c(O)c(O)c1 | 3.22 µM | 25.4 µM | 3.54 µM | 15.2 µM | 2.27 µM | 7.19 µM | 4.25 µM | 15.9 µM | 3.14 µM | 10.9 µM | 2.17 µM | 5.8 µM | 3.6 µM | 18.7 µM | 2.06 µM | 5.64 µM | 2.77 µM | 7.2 µM | 4.99 µM | 30 µM
